Results published in publication PMC10853936, “Heterologous investigation of metabotropic and ionotropic odorant receptors in ab3A neurons of Drosophila melanogaster” (Frontiers in Molecular Biosciences, 2024).

Molecular target: T1, CpomOrco (homomeric) (Cydia pomonella, UniProt H9A5M2)
T1 construct: full-length CDS in pcDNA5/TO, expressed alone in HEK293 cells (HEK293A in methods, HEK293T in results)
T1 sequence (H9A5M2 1-473): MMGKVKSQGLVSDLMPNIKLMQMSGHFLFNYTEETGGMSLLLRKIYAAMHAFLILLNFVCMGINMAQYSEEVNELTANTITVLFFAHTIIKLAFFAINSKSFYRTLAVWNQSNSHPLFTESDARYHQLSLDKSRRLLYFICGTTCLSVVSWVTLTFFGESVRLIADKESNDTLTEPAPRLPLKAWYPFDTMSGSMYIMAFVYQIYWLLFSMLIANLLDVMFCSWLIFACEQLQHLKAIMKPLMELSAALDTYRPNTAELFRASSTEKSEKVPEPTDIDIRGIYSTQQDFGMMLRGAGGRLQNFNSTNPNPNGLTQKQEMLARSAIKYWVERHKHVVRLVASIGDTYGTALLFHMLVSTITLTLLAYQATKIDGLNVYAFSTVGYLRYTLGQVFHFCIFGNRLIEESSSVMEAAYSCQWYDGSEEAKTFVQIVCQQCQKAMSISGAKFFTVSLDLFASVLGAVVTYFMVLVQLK
Assay: Fluo-4 calcium imaging in HEK293 cells, Hill fit
Assay type: cell-based
Settings: read-out: [VUAA1]1/2

EC50: 284 ± 39 µM
Compound: CCc1ccc(NC(=O)CSc2nnc(-c3cccnc3)n2CC)cc1 [VUAA1, acetamide, N-(4-ethylphenyl)-2-[[4-ethyl-5-(3-pyridinyl)-4H-1,2,4-triazol-3-yl]thio]-]
